Data on 3 molecules can be found in ChEMBL document CHEMBL1157406, “Cytotoxic metabolites from the fungal endophyte Alternaria sp. and their subsequent detection in its host plant Polygonum senegalense” (J Nat Prod, 2008).

The subject of the test is L5178Y. Briefly: Cytotoxicity against mouse L5178Y cells at 10 ug/ml by MTT assay. The class given is functional. For orientation: Tetrazolium assays rely on reduction of a dye to a coloured formazan, in cell work by metabolically active cells.
`COc1cc(O)c2c(=O)oc3cc(OS(=O)(=O)O)cc(C)c3c2c1` showed an Activity of 89%.
Under `Cc1cc(=O)c2c(C)cc(O)cc2o1` stands 95%; under `CC[C@H](C)[C@@H]1NC(=O)C(C(C)=O)=C1O` [TENUAZONIC ACID], 57.9%.
